Each structure is given as a SMILES string.

Here are results for 16 compounds from patent publication US6841519B1, “Isoxazoline derivatives and herbicides containing the same as the active ingredient” (Kumiai Chemical Industry Co., Ltd., priority 1999, dated 2005).

Common to all, as to format: in vivo
Assay [1] has as its system Echinochloa crus-galli (L.) Beauv. var. crusgall (Ec). Put plainly: Test for herbicidal effect by upland field soil treatment (Test Example 2), Ec. How it is done:
(§1) [table] <Test Example 2> Test For Herbicidal Effect By Upland Field Soil Treatment An upland field soil was filed in a plastic pot of 80 cm^2. Seeds of Echinochloa crus-galli (L.) Beauv. var. crusgall (Ec) and Setaria viridis (L.) Beauv. (Se) were sowed, followed by covering with the same soil. Wettable powders produced in accordance with the Formulation 1 were diluted with water and sprayed uniformly: on the soil surface using a small sprayer, in an amount of 100 liters per 10 ares so that the amount of each active ingredient became 100 g per 10 ares. Then, breeding was made in a greenhouse, and the herbicidal effect of each wettable powder was examined at the 21st day from the treatment in accordance with the standard shown in Table 40.

In assay [2] the test system is Echinochloa crus-galli (L.) Beauv. var. crusgalli (Ec). Put plainly: Test for herbicidal effect by upland foliage treatment (Test Example 3). The conditions noted are these: 100 g/10 a active ingredient, examined at 14th day. How it is done: Test For Herbicidal Effect By Upland Foliage Treatment
An upland field soil was filed in a plastic pot of 80 cm^2. Seeds of Echinochloa crus-galli (L.) Beauv. var. crusgalli (Ec) were sowed. Breeding was made in a greenhouse for 2 weeks. Wettable powders produced in accordance with the Formulation 1 were diluted with water and sprayed on the whole foliage of plants from above the plants using a small sprayer in an amount of 100 liters per 10 ares so that the amount of each active ingredient became 100 g per 10 ares. Then, breeding was made in the greenhouse, and the herbicidal effect of each wettable powder was examined at the 14th day from the treatment in accordance with the standard shown in Table 40.

Assay [3] has as its system Setaria viridis (L.) Beauv. (Se). Put plainly: Test for herbicidal effect by upland field soil treatment (Test Example 2), Se. How it is done:
as §1

Assay [4] has as its system Echinochloa oryzicola Vasing. (Eo). Put plainly: Test for herbicidal effect by paddy field soil treatment (Test Example 1). The conditions noted are these: application amount (active ingredient) 100 g/10 a, examined at the 21st day from the treatment, index per Table 40. As for the experimental part:
<Test Example 1> Test For Herbicidal Effect By Paddy Field Soil Treatment A paddy field soil was filled in a plastic pot of 100 cm^2 and subjected to puddling. Then, seeds of Echinochloa oryzicola Vasing. (Eo) were sowed and water was filled in a depth of 3 cm. Next day, wettable powders produced in accordance with the Formulation 1 were diluted with water and dropped on the water surface. The application amount of each wettable powder was 100 g per 10 ares in terms of the active ingredient. Then, breeding was made in a greenhouse, and the herbicidal effect of each wettable powder was examined at the 21st day from the treatment in accordance with the standard shown in Table 40. [table]

Setting [5] is: 100 g/10 a active ingredient, examined at 21st day.
Where [6] appears, read: application amount (active ingredient) 100 g/10 a, examined at the 21st day from the treatment, index per Table 40.

Consider `CCOc1cccc(C(F)(F)F)c1CS(=O)(=O)C1=NOC(C)(C)C1` [Compound 1-585], for which the “Herbicidal effect to Ec” value in assay [1] (setting [5]) and in assay [2] was 5 (A herbicidal effect or phytotoxicity of 90% or more) each time. For the same compound, the “Herbicidal effect to Se” value in assay [3] (setting [5]) is 5 (A herbicidal effect or phytotoxicity of 90% or more). Also, the “Herbicidal effect to Eo” value in assay [4] is given as 5 (A herbicidal effect or phytotoxicity of 90% or more).
For `CC1(C)CC(S(=O)(=O)Cc2cc(F)cc(F)c2)=NO1` [Compound 1-506], the “Herbicidal effect to Ec” value in assay [1] (setting [5]) is given as 5 (A herbicidal effect or phytotoxicity of 90% or more); in assay [2], 4 (A herbicidal effect or phytotoxicity of 70% to less than 90%). In assay [3] (setting [5]), the “Herbicidal effect to Se” value is recorded as 5 (A herbicidal effect or phytotoxicity of 90% or more). Besides, the “Herbicidal effect to Eo” value in assay [4] is given as 5 (A herbicidal effect or phytotoxicity of 90% or more).
As for `CCC1(C)CC(S(=O)(=O)Cc2ccccc2C(F)(F)F)=NO1` (stereo not shown) [Compound 1-336], the “Herbicidal effect to Ec” value in assay [1] (setting [6]) and in assay [2] was 5 (A herbicidal effect or phytotoxicity of 90% or more) each time. Also, in assay [3] (setting [6]), the “Herbicidal effect to Se” value is 5 (A herbicidal effect or phytotoxicity of 90% or more). Also, the “Herbicidal effect to Eo” value in assay [4] was 5 (A herbicidal effect or phytotoxicity of 90% or more).
Consider `CCC1(CC)CC([S+]([O-])Cc2c(F)cccc2F)=NO1` (stereo not shown) [Compound 1-363], for which the entries for the “Herbicidal effect to Ec” value in assay [1] (setting [6]) and in assay [2] were 5 (A herbicidal effect or phytotoxicity of 90% or more) and 4 (A herbicidal effect or phytotoxicity of 70% to less than 90%), respectively. In assay [3] (setting [6]), the “Herbicidal effect to Se” value is 4 (A herbicidal effect or phytotoxicity of 70% to less than 90%). Moreover, in assay [4], the “Herbicidal effect to Eo” value was 5 (A herbicidal effect or phytotoxicity of 90% or more).
For `Cc1cccc(OC(C)C)c1CS(=O)(=O)C1=NOC(C)(C)C1` [Compound 1-604], the “Herbicidal effect to Ec” value in assay [1] (setting [5]) and in assay [2] was 5 (A herbicidal effect or phytotoxicity of 90% or more) throughout. In addition, the “Herbicidal effect to Se” value in assay [3] (setting [5]) is 5 (A herbicidal effect or phytotoxicity of 90% or more). Also, the “Herbicidal effect to Eo” value in assay [4] was 5 (A herbicidal effect or phytotoxicity of 90% or more).
As to `Cc1ccc(C)c(CS(=O)(=O)C2=NOC(C)(C)C2)c1` [Compound 1-512], the “Herbicidal effect to Ec” value in assay [1] (setting [5]) and in assay [2] was 5 (A herbicidal effect or phytotoxicity of 90% or more) in each case. In assay [3] (setting [5]), the “Herbicidal effect to Se” value is 5 (A herbicidal effect or phytotoxicity of 90% or more). The “Herbicidal effect to Eo” value in assay [4] is given as 5 (A herbicidal effect or phytotoxicity of 90% or more).
As to `CC1(C)CC(S(=O)(=O)Cc2cc(F)c(F)c(F)c2)=NO1` [Compound 1-509], the “Herbicidal effect to Ec” value in assay [1] (setting [5]) is reported as 5 (A herbicidal effect or phytotoxicity of 90% or more); in assay [2] it was 4 (A herbicidal effect or phytotoxicity of 70% to less than 90%). For the same compound, the “Herbicidal effect to Se” value in assay [3] (setting [5]) is on record as 5 (A herbicidal effect or phytotoxicity of 90% or more). Also, the “Herbicidal effect to Eo” value in assay [4] is listed as 5 (A herbicidal effect or phytotoxicity of 90% or more).
For the compound `Cc1ccc(CS(=O)(=O)C2=NOC(C)(C)C2)c(C)c1` [Compound 1-511], the “Herbicidal effect to Ec” value in assay [1] (setting [5]) and in assay [2] was 5 (A herbicidal effect or phytotoxicity of 90% or more) throughout. Moreover, the “Herbicidal effect to Se” value in assay [3] (setting [5]) is 5 (A herbicidal effect or phytotoxicity of 90% or more). Moreover, the “Herbicidal effect to Eo” value in assay [4] was 5 (A herbicidal effect or phytotoxicity of 90% or more).
Take `CC1(C)CC(S(=O)(=O)Cc2ccccc2OC2CCCC2)=NO1` [Compound 1-609]: the “Herbicidal effect to Ec” value in assay [1] (setting [5]) and in assay [2] was 5 (A herbicidal effect or phytotoxicity of 90% or more) throughout. In addition, the “Herbicidal effect to Se” value in assay [3] (setting [5]) is given as 5 (A herbicidal effect or phytotoxicity of 90% or more). For the same compound, in assay [4], the “Herbicidal effect to Eo” value is 5 (A herbicidal effect or phytotoxicity of 90% or more).
Consider `CC1(C)CC(S(=O)(=O)Cc2c(Cl)cccc2OC(F)F)=NO1` [Compound 1-561], for which the “Herbicidal effect to Ec” value in assay [1] (setting [5]) is 5 (A herbicidal effect or phytotoxicity of 90% or more); in assay [2], 4 (A herbicidal effect or phytotoxicity of 70% to less than 90%). Also, the “Herbicidal effect to Se” value in assay [3] (setting [5]) is recorded as 5 (A herbicidal effect or phytotoxicity of 90% or more). In addition, in assay [4], the “Herbicidal effect to Eo” value is 5 (A herbicidal effect or phytotoxicity of 90% or more).
Turning to `C#CCOc1cccc(Cl)c1CS(=O)(=O)C1=NOC(C)(C)C1` [Compound 1-591], the “Herbicidal effect to Ec” value is 5 (A herbicidal effect or phytotoxicity of 90% or more) in assay [1] (setting [5]) and 4 (A herbicidal effect or phytotoxicity of 70% to less than 90%) in assay [2]. For the same compound, the “Herbicidal effect to Se” value in assay [3] (setting [5]) is given as 5 (A herbicidal effect or phytotoxicity of 90% or more). In addition, the “Herbicidal effect to Eo” value in assay [4] is listed as 5 (A herbicidal effect or phytotoxicity of 90% or more).
In the case of `CC1(C)CC(S(=O)(=O)Cc2ccccc2Br)=NO1` [Compound 1-35], the “Herbicidal effect to Ec” value in assay [1] (setting [6]) was 5 (A herbicidal effect or phytotoxicity of 90% or more); in assay [2], 4 (A herbicidal effect or phytotoxicity of 70% to less than 90%). Besides, the “Herbicidal effect to Se” value in assay [3] (setting [6]) is given as 5 (A herbicidal effect or phytotoxicity of 90% or more). Moreover, in assay [4], the “Herbicidal effect to Eo” value was 5 (A herbicidal effect or phytotoxicity of 90% or more).
For the compound `O=S(=O)(Cc1c(F)cccc1F)C1=NOC2(CCCC2)C1` [Compound 1-383], the “Herbicidal effect to Ec” value in assay [1] (setting [6]) was 5 (A herbicidal effect or phytotoxicity of 90% or more); in assay [2], 4 (A herbicidal effect or phytotoxicity of 70% to less than 90%). In assay [3] (setting [6]), the “Herbicidal effect to Se” value is 4 (A herbicidal effect or phytotoxicity of 70% to less than 90%). In addition, the “Herbicidal effect to Eo” value in assay [4] is recorded as 5 (A herbicidal effect or phytotoxicity of 90% or more).
`CC1(C)CC(S(=O)(=O)Cc2ccccc2OCC2CC2)=NO1` [Compound 1-608]: the “Herbicidal effect to Ec” value in assay [1] (setting [5]) and in assay [2] was 5 (A herbicidal effect or phytotoxicity of 90% or more) throughout. Besides, the “Herbicidal effect to Se” value in assay [3] (setting [5]) is reported as 5 (A herbicidal effect or phytotoxicity of 90% or more). For the same compound, the “Herbicidal effect to Eo” value in assay [4] is 5 (A herbicidal effect or phytotoxicity of 90% or more).
`CC1(C)CC(S(=O)(=O)Cc2ccccc2C#N)=NO1` [Compound 1-139]: the results for the “Herbicidal effect to Ec” value in assay [1] (setting [6]) and in assay [2] were 5 (A herbicidal effect or phytotoxicity of 90% or more) and 4 (A herbicidal effect or phytotoxicity of 70% to less than 90%), respectively. Moreover, the “Herbicidal effect to Se” value in assay [3] (setting [6]) is 5 (A herbicidal effect or phytotoxicity of 90% or more). Moreover, the “Herbicidal effect to Eo” value in assay [4] is 5 (A herbicidal effect or phytotoxicity of 90% or more).
In the case of `CC(C)COc1cccc(Cl)c1CS(=O)(=O)C1=NOC(C)(C)C1` [Compound 1-572], the “Herbicidal effect to Ec” value is recorded as 5 (A herbicidal effect or phytotoxicity of 90% or more) in assay [1] (setting [5]) and 4 (A herbicidal effect or phytotoxicity of 70% to less than 90%) in assay [2]. Further, in assay [3] (setting [5]), the “Herbicidal effect to Se” value is on record as 5 (A herbicidal effect or phytotoxicity of 90% or more). Further, the “Herbicidal effect to Eo” value in assay [4] was 5 (A herbicidal effect or phytotoxicity of 90% or more).
